The source of these data is patent US11414384B2, “P300/CBP hat inhibitors” (Constellation Pharmaceuticals, Inc., priority 2018, dated 2022).

The structures appear in SMILES notation.

p300 HAT domain (residues 1287-1666), sequence (Q09472 1287-1666): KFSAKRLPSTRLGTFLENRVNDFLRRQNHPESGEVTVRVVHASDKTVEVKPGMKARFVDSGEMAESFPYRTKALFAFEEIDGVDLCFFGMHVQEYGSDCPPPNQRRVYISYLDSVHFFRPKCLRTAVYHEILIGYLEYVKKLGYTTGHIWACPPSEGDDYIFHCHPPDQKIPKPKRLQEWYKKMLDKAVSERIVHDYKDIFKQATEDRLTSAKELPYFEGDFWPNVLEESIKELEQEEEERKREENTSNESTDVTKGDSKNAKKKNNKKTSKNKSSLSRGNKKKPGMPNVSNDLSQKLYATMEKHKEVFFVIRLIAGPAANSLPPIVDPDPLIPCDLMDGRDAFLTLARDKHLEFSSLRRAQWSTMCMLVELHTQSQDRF

The target of this test is p300 HAT domain (residues 1287-1666) (Homo sapiens (Human), UniProt Q09472). The test can be described thus: p300 HAT SPA assay (scintillation proximity assay, acetylation of biotinylated H3(1-21) peptide). To be noted: p300 HAT domain; average of at least 2 replicate titrations; read-out: P300 HAT SPA IC50. It counts as biochemical. The method, then:
In a typical experiment the p300 HAT inhibitory activity of the compounds described herein was determined in accordance with the following experimental method.
The expressed protein was purified by Ni2+ affinity, followed by anion exchange chromatography. Appropriate fractions were pooled and buffer exchanged into 20 mM Hepes pH 7.5, 150 mM NaCl, and 1 mM TCEP.
35 μL of the reaction volume was transferred to a 384-well streptavidin FlashPlate (PerkinElmer) using a Bravo liquid handler (Velocity 11) and incubated for 1.5 hr at RT. […] Data were analyzed in Genedata to determine inhibitor IC50 values.
A general note: In a scintillation proximity assay essentially only radioactivity close to the scintillant gives light.
Turning to `O=C(c1c[nH]c2ccccc12)C(NCCc1ccc(F)cc1)c1ccccc1` (single isomer, unassigned) [22 Isomer 1], the IC50 (as a rule, the concentration at which inhibition is half-maximal) is more than 60 µM.

Take `CC(NCCc1ccc(Cl)cc1)C(=O)c1c[nH]c2ccccc12` (single isomer, unassigned) [23 Isomer 1]: the IC50 was more than 60 µM.

Consider `CC(NCCc1ccc(Cl)cc1)C(=O)c1c[nH]c2ccccc12` (single isomer, unassigned) [23 Isomer 2], for which the IC50 was more than 60 µM.

With `O=C(c1c[nH]c2ccccc12)C(NCCc1ccc(Cl)cc1)C1CC1` (single isomer, unassigned) [24 Isomer 1], the IC50 was 52.2 µM.

In the case of `O=C(c1c[nH]c2ccccc12)C(NCCc1ccc(Cl)cc1)C1CC1` (single isomer, unassigned) [24 Isomer 2], the IC50 is more than 60 µM.

In the case of `O=C(c1c[nH]c2ccccc12)C(NCCc1ccc(Cl)cc1)C1CCCC1` (single isomer, unassigned) [25 Isomer 1], the IC50 was more than 60 µM.

For the compound `O=C(c1c[nH]c2ccccc12)C(NCCc1ccc(Cl)cc1)C1CCCC1` (single isomer, unassigned) [25 Isomer 2], the IC50 was more than 60 µM.

Take `CC(Cc1ccc(Cl)cc1)NC(C(=O)c1c[nH]c2ccccc12)c1ccccc1` (single isomer, unassigned) [27 Isomer 2]: the IC50 is more than 60 µM.

For the compound `CC(Cc1ccc(Cl)cc1)NC(C(=O)c1c[nH]c2ccccc12)c1ccccc1` (single isomer, unassigned) [27 Isomer 3], the IC50 was more than 60 µM.

As to `CC(Cc1ccc(Cl)cc1)NC(C(=O)c1c[nH]c2ccccc12)c1ccccc1` (single isomer, unassigned) [27 Isomer 4], the IC50 was more than 60 µM.

`COc1ccc(CCNC(C(=O)c2c[nH]c3c(Cl)cccc23)c2ccccc2)cc1` (single isomer, unassigned) [28 Isomer 1]: the IC50 worked out at 7.58 µM.

Turning to `COc1ccc(CCNC(C(=O)c2c[nH]c3c(Cl)cccc23)c2ccccc2)cc1` (single isomer, unassigned) [28 Isomer 2], the IC50 stood at 1.37 µM.

With `O=C(c1c[nH]c2ccccc12)C(NCCc1cn[nH]c1)c1ccccc1` (single isomer, unassigned) [34 Isomer 1], the IC50 was more than 60 µM.

Turning to `O=C(c1c[nH]c2ccccc12)C(NCCc1cn[nH]c1)c1ccccc1` (single isomer, unassigned) [34 Isomer 2], the IC50 was determined as 24.7 µM.

Turning to `Cn1cc(CCNC(C(=O)c2c[nH]c3ccccc23)c2ccccc2)cn1` (single isomer, unassigned) [35 Isomer 1], the half-inhibitory concentration (IC50) came to 39.8 µM.

Turning to `Cn1cc(CCNC(C(=O)c2c[nH]c3ccccc23)c2ccccc2)cn1` (single isomer, unassigned) [35 Isomer 2], the concentration for half-maximal inhibition (IC50) amounted to 43.5 µM.

For `O=C(c1c[nH]c2ccccc12)C(NCCn1ccnc1)c1ccccc1` (single isomer, unassigned) [36 Isomer 1], the IC50 is more than 60 µM.

As to `O=C(c1c[nH]c2ccccc12)C(NCCn1ccnc1)c1ccccc1` (single isomer, unassigned) [36 Isomer 2], the IC50 was more than 60 µM.

As for `O=C(c1c[nH]c2ccccc12)C(NCCn1cnc2ccccc21)c1ccccc1` (single isomer, unassigned) [37 Isomer 1], the IC50 is more than 60 µM.

Turning to `O=C(c1c[nH]c2ccccc12)C(NCCn1cnc2ccccc21)c1ccccc1` (single isomer, unassigned) [37 Isomer 2], the IC50 is more than 60 µM.

As for `Cc1ccc(CCNC(C(=O)c2c[nH]c3ccccc23)c2ccccc2)cc1` (single isomer, unassigned) [38 Isomer 1], the IC50 amounted to 19 µM.

`CN(C)c1ccc(CCNC(C(=O)c2c[nH]c3ccccc23)c2ccccc2)cc1` (single isomer, unassigned) [39 Isomer 1]: the IC50 was more than 60 µM.

As for `O=C(c1c[nH]c2ccccc12)C(NCCc1ccc(OC(F)(F)F)cc1)c1ccccc1` (single isomer, unassigned) [40 Isomer 1], the IC50 was more than 60 µM.

Turning to `O=C(c1c[nH]c2ccccc12)C(NCCN1CCCCC1=O)c1ccccc1` (single isomer, unassigned) [41 Isomer 1], the IC50 is more than 60 µM.

In the case of `O=C(c1c[nH]c2ccccc12)C(NCCN1CCCCC1=O)c1ccccc1` (single isomer, unassigned) [41 Isomer 2], the IC50 was more than 60 µM.

As to `Cc1ccc2c(C(=O)C(NCCc3ccc(F)cc3)c3ccccc3)c[nH]c2c1` (single isomer, unassigned) [48 Isomer 1], the IC50 is more than 60 µM.

Consider `CN(C)C(=O)CCc1ccc2c(C(=O)C(NCCc3ccc(F)cc3)c3ccccc3)c[nH]c2c1` (single isomer, unassigned) [49 Isomer 1], for which the IC50 was more than 30 µM.

For `NS(=O)(=O)c1ccc(CCNC(C(=O)c2c[nH]c3c(C(F)(F)F)cccc23)c2ccccc2)cc1` (single isomer, unassigned) [50 Isomer 1], the IC50 came to 6.93 µM.

Consider `NS(=O)(=O)c1ccc(CCNC(C(=O)c2c[nH]c3c(C(F)(F)F)cccc23)c2ccccc2)cc1` (single isomer, unassigned) [50 Isomer 2], for which the IC50 was more than 30 µM.

In the case of `COc1ccc2c(C(=O)C(NCCc3ccc(S(N)(=O)=O)cc3)c3ccccc3)c[nH]c2c1` (single isomer, unassigned) [51 Isomer 1], the IC50 was more than 30 µM.

As for `O=C(c1c[nH]c2ccccc12)C(NCCc1ccc(Cl)nc1)c1ccccc1` (single isomer, unassigned) [52 Isomer 1], the IC50 turned out to be 15.2 µM.

For `O=C(c1c[nH]c2ccccc12)C(NCCc1ccc(Cl)nc1)c1ccccc1` (single isomer, unassigned) [52 Isomer 2], the IC50 turned out to be 2.83 µM.

Regarding `CCNc1ccc(CCNC(C(=O)c2c[nH]c3ccccc23)c2ccccc2)cn1` (single isomer, unassigned) [53 Isomer 1], the IC50 is more than 30 µM.

On to `COCCNc1ccc(CCNC(C(=O)c2c[nH]c3ccccc23)c2ccccc2)cn1` (single isomer, unassigned) [54 Isomer 1], for which the half-maximal inhibitory concentration (IC50) was more than 30 µM.

Regarding `COCCNc1ccc(CCNC(C(=O)c2c[nH]c3ccccc23)c2ccccc2)cn1` (single isomer, unassigned) [54 Isomer 2], the IC50 turned out to be 15.7 µM.

Regarding `NS(=O)(=O)c1ccc(CCNC(C(=O)c2c[nH]c3c(Cl)c(Cl)ccc23)c2ccccc2)cc1` (single isomer, unassigned) [55 Isomer 1], the IC50 was determined as 7.83 µM.

In the case of `NS(=O)(=O)c1ccc(CCNC(C(=O)c2c[nH]c3c(Cl)c(Cl)ccc23)c2ccccc2)cc1` (single isomer, unassigned) [55 Isomer 2], the IC50 is more than 30 µM.

With `Cc1ccc2c(C(=O)C(NCCc3ccc(S(N)(=O)=O)cc3)c3ccccc3)c[nH]c2c1` (single isomer, unassigned) [56 Isomer 1], the IC50 was more than 60 µM.

In the case of `O=C(c1c[nH]c2ccccc12)C(NCCc1ccc(-c2c[nH]nn2)cc1)c1ccccc1` (single isomer, unassigned) [57 Isomer 1], the IC50 is more than 5 µM.

On to `O=C(c1c[nH]c2ccccc12)C(NCCc1ccc(-c2c[nH]nn2)cc1)c1ccccc1` (single isomer, unassigned) [57 Isomer 2], for which the IC50 turned out to be 0.287 µM.

In the case of `N#Cc1ccc(CCNC(C(=O)c2c[nH]c3ccccc23)c2ccccc2)cc1` (single isomer, unassigned) [58 Isomer 1], the IC50 came to 25.3 µM.

As for `CCC(CNC(C(=O)c1c[nH]c2ccccc12)c1ccccc1)c1ccc(Cl)cc1` (single isomer, unassigned) [59 Isomer 1], the IC50 was more than 30 µM.
